Results taken from ChEMBL document CHEMBL5113502, “Accommodation of ring C expanded deoxyvasicinone in the HDAC inhibitory pharmacophore culminates into a tractable anti-lung cancer agent and pH-responsive nanocarrier” (Eur J Med Chem, 2022).
Calls of active or inactive are those of the source. No cut-off for these calls is given here.

What was measured:
[1] = system: A549; assay: Induction of autophagy in human A549 cells by acridine orange and propidium iodide staining based fluorescence microscopic analysis; assay type: functional, cell-based; conditions: DDE = dose-dependent effect
[2] = molecular target: Histone deacetylase 2 (Homo sapiens, UniProt Q92769); assay: Inhibition of HDAC2 (unknown origin) by colorimetric method
[3] = species on record: Homo sapiens; assay: Selectivity index, ratio of IC50 for HDAC6 (unknown origin) to IC50 for HDAC 1 (unknown origin)
[4] = system: A549; assay: Downregulation of HDAC1 expression in human A549 cells at 0.1 to 1 uM after 24 hrs by Western blot analysis; assay type: functional, cell-based; conditions: dose 0.1-1 µM
[5] = species on record: Homo sapiens; assay: Selectivity index, ratio of IC50 for HDAC 1 (unknown origin) to IC50 for HDAC 3 (unknown origin)
[6] = species on record: Homo sapiens; assay: Selectivity index, ratio of IC50 for HDAC8 (unknown origin) to IC50 for HDAC 6 (unknown origin)
[7] = molecular target: Histone deacetylase 9 (Homo sapiens, UniProt Q9UKV0); assay: Inhibition of HDAC9 (unknown origin) by colorimetric method
[8] = species on record: Homo sapiens; assay: Selectivity index, ratio of IC50 for HDAC 8 (unknown origin) to IC50 for HDAC 3 (unknown origin)
[9] = species on record: Homo sapiens; assay: Selectivity index, ratio of IC50 for HDAC 3 (unknown origin) to IC50 for HDAC 1 (unknown origin)
[10] = species on record: Homo sapiens; assay: Selectivity index, ratio of IC50 for HDAC5 (unknown origin) to IC50 for HDAC 6 (unknown origin)
[11] = species on record: Homo sapiens; assay: Selectivity index, ratio of IC50 for HDAC 2 (unknown origin) to IC50 for HDAC 1 (unknown origin)
[12] = species on record: Homo sapiens; assay: Selectivity index, ratio of IC50 for HDAC 4 (unknown origin) to IC50 for HDAC 3 (unknown origin)
[13] = species on record: Homo sapiens; assay: Selectivity index, ratio of IC50 for HDAC7 (unknown origin) to IC50 for HDAC 1 (unknown origin)
[14] = system: A549; assay: Induction of apoptosis in human A549 cells assessed as cell shrinkage at 0.1 to 1 uM after 24 hrs by fluorescence microscopic analysis; assay type: functional, cell-based; conditions: dose 0.1-1 µM
[15] = system: A549; assay: Induction of apoptosis in human A549 cells assessed as nuclear condensation at 0.1 to 1 uM after 24 hrs by fluorescence microscopic analysis; assay type: functional, cell-based; conditions: dose 0.1-1 µM
[16] = species on record: Homo sapiens; assay: Selectivity index, ratio of IC50 for HDAC3 (unknown origin) to IC50 for HDAC 6 (unknown origin)
[17] = species on record: Homo sapiens; assay: Selectivity index, ratio of IC50 for HDAC5 (unknown origin) to IC50 for HDAC 1 (unknown origin)
[18] = molecular target: T1, Histone deacetylase 8 (Homo sapiens, UniProt Q9BY41); assay: Inhibition of HDAC8 (unknown origin) by colorimetric method
T1 sequence (Q9BY41 whole entry): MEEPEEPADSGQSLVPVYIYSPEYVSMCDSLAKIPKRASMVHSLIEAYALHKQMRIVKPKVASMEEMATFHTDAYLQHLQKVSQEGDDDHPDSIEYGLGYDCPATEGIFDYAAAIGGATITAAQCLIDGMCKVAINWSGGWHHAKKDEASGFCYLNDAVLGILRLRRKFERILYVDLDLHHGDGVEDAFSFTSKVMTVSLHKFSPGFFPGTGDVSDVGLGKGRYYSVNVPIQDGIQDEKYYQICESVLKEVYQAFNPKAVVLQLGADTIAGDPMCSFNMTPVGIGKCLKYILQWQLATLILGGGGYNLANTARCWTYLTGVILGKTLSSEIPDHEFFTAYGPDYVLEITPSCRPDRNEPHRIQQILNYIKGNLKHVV

[19] = system: NCI-H727; assay: Cytotoxicity against human NCI-H727 cells assessed as cell viability after 48 hrs by MTT assay; assay type: functional, cell-based; conditions: NCI-H727, 48 h
[20] = molecular target: T2, Histone deacetylase 7 (Homo sapiens, UniProt Q8WUI4); assay: Inhibition of HDAC7 (unknown origin) by colorimetric method
T2 sequence (Q8WUI4 whole entry): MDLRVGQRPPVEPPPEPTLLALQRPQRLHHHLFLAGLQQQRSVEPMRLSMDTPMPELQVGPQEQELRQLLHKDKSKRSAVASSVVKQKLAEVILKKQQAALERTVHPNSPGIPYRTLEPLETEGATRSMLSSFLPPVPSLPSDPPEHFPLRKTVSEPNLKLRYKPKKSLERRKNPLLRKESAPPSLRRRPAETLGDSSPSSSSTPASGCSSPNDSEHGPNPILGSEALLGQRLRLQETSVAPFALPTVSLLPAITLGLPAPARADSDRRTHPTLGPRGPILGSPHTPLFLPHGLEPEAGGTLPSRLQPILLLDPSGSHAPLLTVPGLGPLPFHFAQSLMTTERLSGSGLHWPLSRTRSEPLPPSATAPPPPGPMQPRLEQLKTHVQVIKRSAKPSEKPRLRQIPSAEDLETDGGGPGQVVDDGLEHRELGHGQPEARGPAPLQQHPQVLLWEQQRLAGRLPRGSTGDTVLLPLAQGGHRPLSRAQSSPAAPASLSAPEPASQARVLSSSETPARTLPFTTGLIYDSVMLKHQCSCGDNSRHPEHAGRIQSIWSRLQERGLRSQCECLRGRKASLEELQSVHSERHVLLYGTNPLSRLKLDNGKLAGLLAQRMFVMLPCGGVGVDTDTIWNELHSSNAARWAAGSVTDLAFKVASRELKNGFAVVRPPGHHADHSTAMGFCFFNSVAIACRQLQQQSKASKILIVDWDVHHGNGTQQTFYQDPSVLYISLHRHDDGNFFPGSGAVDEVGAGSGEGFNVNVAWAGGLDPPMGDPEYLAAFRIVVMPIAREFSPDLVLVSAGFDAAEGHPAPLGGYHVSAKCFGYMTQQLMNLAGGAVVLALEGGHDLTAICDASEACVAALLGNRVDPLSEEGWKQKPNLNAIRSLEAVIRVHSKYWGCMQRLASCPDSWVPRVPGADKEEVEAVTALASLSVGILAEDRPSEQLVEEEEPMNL

[21] = molecular target: Histone deacetylase 1 (Homo sapiens, UniProt Q13547); assay: Inhibition of HDAC1 (unknown origin) by colorimetric method
[22] = system: A549; assay: Inhibition of HDAC1/HDAC3/HDAC6 in human A549 cells assessed as increase in alpha-tubulin-ack40 level by Western blot analysis; assay type: cell-based
[23] = species on record: Homo sapiens; assay: Selectivity index, ratio of IC50 for HDAC 7 (unknown origin) to IC50 for HDAC 3 (unknown origin)
[24] = species on record: Homo sapiens; assay: Selectivity index, ratio of IC50 for HDAC8 (unknown origin) to IC50 for HDAC 1 (unknown origin)
[25] = system: A549; assay: Inhibition of HDAC1/HDAC3/HDAC6 in human A549 cells assessed as increase in H3 acK9 level by Western blot analysis; assay type: cell-based
[26] = species on record: Homo sapiens; assay: Selectivity index, ratio of IC50 for HDAC4 (unknown origin) to IC50 for HDAC 6 (unknown origin)
[27] = species on record: Homo sapiens; assay: Selectivity index, ratio of IC50 for HDAC 1 (unknown origin) to IC50 for HDAC 6 (unknown origin)
[28] = molecular target: Histone deacetylase 4 (Homo sapiens, UniProt P56524); assay: Inhibition of HDAC4 (unknown origin) by colorimetric method
Sequence of Histone deacetylase 4 (P56524 whole entry): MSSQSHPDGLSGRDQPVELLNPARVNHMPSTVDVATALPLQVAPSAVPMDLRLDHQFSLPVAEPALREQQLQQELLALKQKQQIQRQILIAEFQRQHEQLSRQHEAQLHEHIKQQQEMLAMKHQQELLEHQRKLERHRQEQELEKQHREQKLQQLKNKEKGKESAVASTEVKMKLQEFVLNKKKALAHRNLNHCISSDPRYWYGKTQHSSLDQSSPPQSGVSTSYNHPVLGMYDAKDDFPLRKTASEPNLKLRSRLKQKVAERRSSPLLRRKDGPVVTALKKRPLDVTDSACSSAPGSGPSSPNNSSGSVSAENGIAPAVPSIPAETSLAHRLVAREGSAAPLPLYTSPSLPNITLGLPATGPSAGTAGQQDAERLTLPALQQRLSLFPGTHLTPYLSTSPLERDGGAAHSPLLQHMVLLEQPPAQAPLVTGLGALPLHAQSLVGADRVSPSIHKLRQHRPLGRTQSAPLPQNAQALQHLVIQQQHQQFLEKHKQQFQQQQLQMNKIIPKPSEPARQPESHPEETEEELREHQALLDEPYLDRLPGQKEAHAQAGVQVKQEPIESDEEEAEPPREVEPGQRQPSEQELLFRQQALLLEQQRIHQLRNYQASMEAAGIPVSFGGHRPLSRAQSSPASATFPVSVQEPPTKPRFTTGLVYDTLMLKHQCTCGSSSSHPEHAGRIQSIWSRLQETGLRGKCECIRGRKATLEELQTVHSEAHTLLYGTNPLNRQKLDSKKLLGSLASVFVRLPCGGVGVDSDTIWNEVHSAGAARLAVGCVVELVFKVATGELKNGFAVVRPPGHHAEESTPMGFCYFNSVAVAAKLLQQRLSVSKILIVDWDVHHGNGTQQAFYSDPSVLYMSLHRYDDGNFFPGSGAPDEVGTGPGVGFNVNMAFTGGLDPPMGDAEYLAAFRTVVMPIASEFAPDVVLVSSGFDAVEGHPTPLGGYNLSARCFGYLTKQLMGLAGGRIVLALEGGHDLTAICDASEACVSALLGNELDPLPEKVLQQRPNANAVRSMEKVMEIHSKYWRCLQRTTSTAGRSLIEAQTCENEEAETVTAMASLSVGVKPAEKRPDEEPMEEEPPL

Sequence of Histone deacetylase 2 (Q92769 whole entry): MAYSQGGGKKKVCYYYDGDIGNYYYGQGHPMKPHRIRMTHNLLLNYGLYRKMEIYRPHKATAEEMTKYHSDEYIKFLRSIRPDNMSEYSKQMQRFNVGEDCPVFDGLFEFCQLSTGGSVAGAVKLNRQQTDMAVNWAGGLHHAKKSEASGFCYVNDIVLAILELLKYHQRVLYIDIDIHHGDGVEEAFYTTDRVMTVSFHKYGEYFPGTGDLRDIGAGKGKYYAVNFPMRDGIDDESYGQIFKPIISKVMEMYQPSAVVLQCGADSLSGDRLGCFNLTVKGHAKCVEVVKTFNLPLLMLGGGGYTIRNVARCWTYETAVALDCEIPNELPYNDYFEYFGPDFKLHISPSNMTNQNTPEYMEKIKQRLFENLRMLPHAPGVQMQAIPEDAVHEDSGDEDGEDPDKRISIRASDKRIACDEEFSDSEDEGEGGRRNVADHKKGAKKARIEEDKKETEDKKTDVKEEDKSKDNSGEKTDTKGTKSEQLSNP
Sequence of Histone deacetylase 9 (Q9UKV0 whole entry): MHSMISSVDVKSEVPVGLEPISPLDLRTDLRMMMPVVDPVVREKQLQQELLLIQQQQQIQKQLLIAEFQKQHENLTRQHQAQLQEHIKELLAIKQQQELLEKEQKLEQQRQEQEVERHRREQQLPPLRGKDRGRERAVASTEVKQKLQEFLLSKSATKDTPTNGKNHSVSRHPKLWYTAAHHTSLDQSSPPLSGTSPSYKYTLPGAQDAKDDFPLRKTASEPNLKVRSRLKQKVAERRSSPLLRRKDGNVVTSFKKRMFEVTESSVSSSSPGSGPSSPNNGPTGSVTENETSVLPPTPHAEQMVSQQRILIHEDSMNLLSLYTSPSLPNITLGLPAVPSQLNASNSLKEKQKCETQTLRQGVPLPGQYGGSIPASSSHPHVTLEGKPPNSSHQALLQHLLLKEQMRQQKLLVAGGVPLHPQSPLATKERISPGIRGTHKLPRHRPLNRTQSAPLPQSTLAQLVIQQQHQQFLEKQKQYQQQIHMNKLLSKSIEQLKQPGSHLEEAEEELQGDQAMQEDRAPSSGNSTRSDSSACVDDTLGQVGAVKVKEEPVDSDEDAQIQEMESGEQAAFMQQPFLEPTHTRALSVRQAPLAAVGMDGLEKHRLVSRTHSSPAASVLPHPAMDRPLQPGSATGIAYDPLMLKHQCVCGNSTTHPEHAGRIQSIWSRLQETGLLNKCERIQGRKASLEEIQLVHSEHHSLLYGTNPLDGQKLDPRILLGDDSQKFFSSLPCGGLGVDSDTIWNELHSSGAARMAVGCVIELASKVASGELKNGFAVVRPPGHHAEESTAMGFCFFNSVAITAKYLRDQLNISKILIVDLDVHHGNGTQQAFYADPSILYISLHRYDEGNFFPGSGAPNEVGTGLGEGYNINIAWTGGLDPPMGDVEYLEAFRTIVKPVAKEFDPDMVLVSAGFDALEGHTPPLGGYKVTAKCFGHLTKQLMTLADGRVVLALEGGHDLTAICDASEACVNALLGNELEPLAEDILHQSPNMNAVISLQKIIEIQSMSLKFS
Sequence of Histone deacetylase 1 (Q13547 whole entry): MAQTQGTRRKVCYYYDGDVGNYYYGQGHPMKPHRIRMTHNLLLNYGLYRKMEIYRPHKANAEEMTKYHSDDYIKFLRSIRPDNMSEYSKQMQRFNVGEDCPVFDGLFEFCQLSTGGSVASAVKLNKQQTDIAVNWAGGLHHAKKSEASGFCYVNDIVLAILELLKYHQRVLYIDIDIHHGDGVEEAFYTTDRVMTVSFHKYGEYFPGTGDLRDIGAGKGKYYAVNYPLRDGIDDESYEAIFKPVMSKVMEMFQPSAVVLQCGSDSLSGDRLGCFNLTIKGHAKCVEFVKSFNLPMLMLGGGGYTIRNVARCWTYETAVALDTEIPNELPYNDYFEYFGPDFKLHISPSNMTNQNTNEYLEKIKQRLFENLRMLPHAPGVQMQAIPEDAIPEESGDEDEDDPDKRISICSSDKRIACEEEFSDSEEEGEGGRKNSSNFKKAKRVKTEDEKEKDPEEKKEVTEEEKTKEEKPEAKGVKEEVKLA

- IC50 [2]: 1260 nM
- Ratio IC50 [3]: 0.25
- Ratio IC50 [5]: 0.72
- Ratio IC50 [6]: 13.7
- IC50 [7]: 4320 nM
- Ratio IC50 [8]: 2
- Ratio IC50 [9]: 1.37
- Ratio IC50 [10]: 47.8
- Ratio IC50 [11]: 25.2
- Ratio IC50 [12]: 23.8
- Ratio IC50 [13]: 81.8
- Ratio IC50 [16]: 5.31
- Ratio IC50 [17]: 12.4
- IC50 [18]: 178 nM
- IC50 [20]: 4080 nM
- IC50 [21]: 49.9 nM
- Ratio IC50 [23]: 59.6
- Ratio IC50 [24]: 3.56
- Ratio IC50 [26]: 126
- Ratio IC50 [27]: 3.86
- IC50 [28]: 1630 nM
SMILES: O=C(/C=C/c1ccc(CNc2ccc3nc4n(c(=O)c3c2)CCCCC4)cc1)NO
- Activity [1]: Dde
- inhibition [4]: Active
- Activity [14]: Active
- Activity [15]: Active
- IC50 [19]: 960 nM
- inhibition [22]: Active
- inhibition [25]: Active
